Test results taken from patent publication US6214836A, “Water soluble analogues of 20(S)-camptothecin” (Dr. Reddy's Research Foundation, priority 1996, dated 2001).
Where two headings read alike, the source gives them in different places.

Assays:
[1] = tested on: NCI's 60 human tumor cell line; test: NCI 60 human tumor cell line assay (mean, Table 1); type: cell-based; conditions: read-out: IC 50 (mean value of the minimum drug concentration required to produce 50% cell growth inhibition (GI50))
Method: (§1) Inoculates were allowed a preincubation period of 24 h at 37° C. for stabilization. […] Readings are transferred to a microcomputer and fmal reports are generated using especially developed software.
^a IC 50 = the mean value of the minimum drug concentration (μm) of
NCI's 60 human tumor cell line assay.

LOX IMVI = test: 50% growth inhibition, MELANOMA panel; type: cell-based; conditions: Homo sapiens, read-out: 50% Growth Inhibition (GI 50), 48 h
Method: as §1

M 14 = test: 50% growth inhibition, MELANOMA panel; type: cell-based; conditions: Homo sapiens, M14, read-out: 50% Growth Inhibition (GI 50); M 14, melanoma; 48 h
Method: as §1

UACC 62 = test: 50% growth inhibition, MELANOMA panel; type: cell-based; conditions: Homo sapiens, read-out: 50% Growth Inhibition (GI 50); UACC 62, melanoma; 48 h
Method: as §1

ACHN = test: 50% growth inhibition, RENAL panel; type: cell-based; conditions: Homo sapiens, read-out: 50% Growth Inhibition (GI 50), 48 h
Method: as §1

CAKI-1 = test: 50% growth inhibition, RENAL panel; type: cell-based; conditions: Homo sapiens, read-out: 50% Growth Inhibition (GI 50); CAKI-1, renal; 48 h
Method: as §1

786-O = test: 50% growth inhibition, RENAL panel; type: cell-based; conditions: Homo sapiens, 786-0, read-out: 50% Growth Inhibition (GI 50), 48 h
Method: as §1

H 460 = test: 50% growth inhibition, NSLC panel; type: cell-based; conditions: Homo sapiens, NCI-H460, read-out: 50% Growth Inhibition (GI 50); H 460, NSLC; 48 h
Method: as §1

H 23 = test: 50% growth inhibition, NSLC panel; type: cell-based; conditions: Homo sapiens, NCI-H23, read-out: 50% Growth Inhibition (GI 50); H 23, NSLC; 48 h
Method: as §1

HOP 62 = test: 50% growth inhibition, NSLC panel; type: cell-based; conditions: Homo sapiens, read-out: 50% Growth Inhibition (GI 50); HOP 62, NSLC; 48 h
Method: as §1

SR = test: 50% growth inhibition, […] panel; type: cell-based; conditions: Homo sapiens, read-out: 50% Growth Inhibition (GI 50), leukemia, 48 h
Method: as §1

CCRF-CEM = test: 50% growth inhibition, […] panel; type: cell-based; conditions: Homo sapiens, read-out: 50% Growth Inhibition (GI 50), leukemia, 48 h
Method: as §1

HL 60 = test: 50% growth inhibition, […] panel; type: cell-based; conditions: Homo sapiens, read-out: 50% Growth Inhibition (GI 50); HL 60, leukemia; 48 h
Method: as §1

HCT 116 = test: 50% growth inhibition, COLON panel; type: cell-based; conditions: Homo sapiens, read-out: 50% Growth Inhibition (GI 50); HCT 116, colon; 48 h
Method: as §1

SW 620 = test: 50% growth inhibition, COLON panel; type: cell-based; conditions: Homo sapiens, read-out: 50% Growth Inhibition (GI 50); SW 620, colon; 48 h
Method: as §1

HT 29 = test: 50% growth inhibition, COLON panel; type: cell-based; conditions: Homo sapiens, read-out: 50% Growth Inhibition (GI 50); HT 29, colon; 48 h
Method: as §1

SF 295 = test: 50% growth inhibition, CNS panel; type: cell-based; conditions: Homo sapiens, read-out: 50% Growth Inhibition (GI 50); SF 295, CNS; 48 h
Method: as §1

SF-539 = test: 50% growth inhibition, CNS panel; type: cell-based; conditions: Homo sapiens, read-out: 50% Growth Inhibition (GI 50); SF-539, CNS; 48 h
Method: as §1

[2] = tested on: Human Serum Albumin (HSA); conditions: in the presence of HSA at 37° C.; vs 20(S) camptothecin and 9-aminocamptothecin; cited from earlier work
humans = conditions: cited from earlier work
topoisomerase I = conditions: cited from earlier work
[3] = vs 20(RS)-camptothecin of the formula 7; cited from earlier work
H 522 = test: 50% growth inhibition, NSLC panel; type: cell-based; conditions: Homo sapiens, NCI-H522, read-out: 50% Growth Inhibition (GI 50); H 522, NSLC; 48 h
Method: as §1

MOLT-4 = test: 50% growth inhibition, […] panel; type: cell-based; conditions: Homo sapiens, read-out: 50% Growth Inhibition (GI 50); MOLT-4, leukemia; 48 h
Method: as §1

MCF-7 = test: 50% growth inhibition, BREAST panel; type: cell-based; conditions: Homo sapiens, MCF7, read-out: 50% Growth Inhibition (GI 50); MCF-7, breast; 48 h
Method: as §1

MCF7/ADR = test: 50% growth inhibition, BREAST panel; type: cell-based; conditions: Homo sapiens, NCI/ADR-RES, read-out: 50% Growth Inhibition (GI 50), 48 h
Method: as §1

T 47D = test: 50% growth inhibition, BREAST panel; type: cell-based; conditions: Homo sapiens, T47D, read-out: 50% Growth Inhibition (GI 50), 48 h
Method: as §1

SF-268 = test: 50% growth inhibition, CNS panel; type: cell-based; conditions: Homo sapiens, SF-268, 48 h, read-out: 50% Growth Inhibition (GI 50)
Method: as §1

SNB-19 = test: 50% growth inhibition, CNS panel; type: cell-based; conditions: Homo sapiens, read-out: 50% Growth Inhibition (GI 50); SNB-19, CNS; 48 h
Method: as §1

**Q.** With `CC[C@@]1(O)C(=O)OCc2c1cc1n(c2=O)C(CC(=O)OC)c2cc3ccccc3nc2-1` (stereo partly drawn) [Example 1, 5-Carbomethoxymethylcamptothecin] as the compound, how does the IC50 ([1]; Homo sapiens, 48 h) read?
**A.** 16200 nM

**Q.** Which IC50 ([1]; Homo sapiens, 48 h) does the source give for `CC[C@@]1(O)C(=O)OCc2c1cc1n(c2=O)C(CC(=O)OC)c2cc3c([N+](=O)[O-])cccc3nc2-1` (stereo partly drawn) [Example 5, 9-Nitro-5-carbomethoxymethylcamptothecin] here?
**A.** 15800 nM

**Q.** Which GI50 (LOX IMVI) does the source give for `CC[C@@]1(O)C(=O)OCc2c1cc1n(c2=O)C(CC(C)=O)c2cc3c([N+](=O)[O-])cccc3nc2-1` (stereo partly drawn) [Example 4, 9-nitro-5-(2'-oxopropyl)camptothecin] here?
**A.** 380 nM

**Q.** What about the GI50 (M 14) of the same compound?
**A.** 300 nM

**Q.** What about the GI50 (UACC 62) of the same compound?
**A.** 330 nM

**Q.** And the IC50 ([1]; Homo sapiens, 48 h)?
**A.** 1000 nM

**Q.** What about the GI50 (ACHN) of the same compound?
**A.** 210 nM

**Q.** What about the GI50 (CAKI-1) of the same compound?
**A.** 210 nM

**Q.** What about the GI50 (786-O) of the same compound?
**A.** 300 nM

**Q.** And the GI50 (H 460)?
**A.** 100 nM

**Q.** And the GI50 (H 23)?
**A.** 240 nM

**Q.** What about the GI50 (HOP 62) of the same compound?
**A.** 260 nM

**Q.** What about the GI50 (SR) of the same compound?
**A.** 20 nM

**Q.** And the GI50 (CCRF-CEM)?
**A.** 90 nM

**Q.** And the GI50 (HL 60)?
**A.** 230 nM

**Q.** And the GI50 (HCT 116)?
**A.** 570 nM

**Q.** And the GI50 (SW 620)?
**A.** 70 nM

**Q.** What about the GI50 (HT 29) of the same compound?
**A.** 1170 nM

**Q.** And the GI50 (SF 295)?
**A.** 190 nM

**Q.** And the GI50 (SF-539)?
**A.** 260 nM

**Q.** With `CCc1c2c(nc3ccc(OC(=O)N4CCC(N5CCCCC5)CC4)cc13)-c1cc3c(c(=O)n1C2)COC(=O)[C@]3(O)CC` [CPT-11] as the compound, how does the “percentage (%) of lactone form at equilibrium (in words)” value (shortened to “percentage (%) of lactone form”) [2] read?
**A.** higher percentage (%) of lactone form at equilibrium

**Q.** Which results are given for `CC[C@@]1(O)C(=O)OCc2c1cc1n(c2=O)Cc2cc3ccccc3nc2-1` [20(S)-Camptothecin]?
**A.** toxicity (in words) (humans): high toxicity problems; side effects on humans (in words) (humans; humans): unacceptable side effects on humans; topoisomerase I inhibition (in words) (topoisomerase I): inhibitor of topoisomerise I

**Q.** For `CCc1c2c(nc3ccc(O)cc13)-c1cc3c(c(=O)n1C2)COC(=O)[C@]3(O)CC` [SN-38, 7-ethyl-10-hydroxycamptothecin], which “percentage (%) of lactone form” value [2] is on record?
**A.** higher percentage (%) of lactone form at equilibrium

**Q.** For `CC[C@@]1(O)C(=O)OCc2c1cc1n(c2=O)C(CC(=O)OC)c2cc3c(OC)cccc3nc2-1` (stereo partly drawn) [Example 10, 9-methoxy-5-carbomethoxymethylcamptothecin], which IC50 ([1]; mean over NCI's 60 human tumor cell lines, 48 h incubation) is on record?
**A.** 16200 nM

**Q.** For `CC[C@@]1(O)C(=O)OCc2c1cc1n(c2=O)Cc2cc3c(CN(C)C)c(O)ccc3nc2-1` [Topotecan, topotecan], which “percentage (%) of lactone form” value [2] is on record?
**A.** higher percentage (%) of lactone form at equilibrium

**Q.** For `C=C1C(=O)OCc2c1cc1n(c2=O)Cc2c-1nc1ccc(O)cc1c2CC` [formula 8], which “topoisomerase I inhibition (in words)” value (topoisomerase I) is on record?
**A.** potent camptothecin like inhibition of topoisomerase I activity

**Q.** For `CCc1c2c(nc3ccc(OC)cc13)-c1cc3c(c(=O)n1C2)COC(=O)[C@]3(N)CC` [formula 6], which “in vivo antitumor activity (in words)” value [3] is on record?
**A.** increased in vivo antitumor activity than 20(RS)-camptothecin

**Q.** For `CC[C@@]1(O)C(=O)OCc2c1cc1n(c2=O)C(CC(C)=O)c2cc3ccccc3nc2-1` (stereo partly drawn) [Example 2, 5-(2'-oxopropyl)camptothecin], which IC50 ([1]; Homo sapiens, 48 h) is on record?
**A.** 8310 nM

**Q.** What about the GI50 (ACHN) of the same compound?
**A.** 2880 nM

**Q.** And the GI50 (CAKI-1)?
**A.** 2630 nM

**Q.** What about the GI50 (786-O) of the same compound?
**A.** 2950 nM

**Q.** And the GI50 (H 460)?
**A.** 1120 nM

**Q.** What about the GI50 (HOP 62) of the same compound?
**A.** 4460 nM

**Q.** What about the GI50 (H 522) of the same compound?
**A.** 3980 nM

**Q.** What about the GI50 (MOLT-4) of the same compound?
**A.** 770 nM

**Q.** What about the GI50 (SR) of the same compound?
**A.** 180 nM

**Q.** What about the GI50 (CCRF-CEM) of the same compound?
**A.** 380 nM

**Q.** What about the GI50 (MCF-7) of the same compound?
**A.** 3630 nM

**Q.** What about the GI50 (MCF7/ADR) of the same compound?
**A.** 1860 nM

**Q.** And the GI50 (T 47D)?
**A.** 2630 nM

**Q.** And the GI50 (HCT 116)?
**A.** 5620 nM

**Q.** What about the GI50 (SW 620) of the same compound?
**A.** 6020 nM

**Q.** And the GI50 (SF-539)?
**A.** 3890 nM

**Q.** And the GI50 (SF-268)?
**A.** 4260 nM

**Q.** What about the GI50 (SNB-19) of the same compound?
**A.** 6450 nM

**Q.** For `CC[C@@]1(O)C(=O)OCc2c1cc1n(c2=O)C(CC(=O)OC)c2cc3cc(O)ccc3nc2-1` (stereo partly drawn) [Example 3, 10-hydroxy-5-carbomethoxymethylcamptothecin], which IC50 ([1]; Homo sapiens, 48 h) is on record?
**A.** 4890 nM
